Results on 1 substance are retold here after US6642365B1, “Anti-(retro)viral conjugates of saccharides and acetamidino or guanidino compounds” (Yeda Research and Development Co. Ltd., priority 2001, dated 2003).

What all share (type): cell-based
Assay [1] concerns HIV-1 clinical isolate, resistant to AZT. The assay is described as follows: Anti-HIV assay, syncytium formation and tetrazolium colorimetric assay. The following applies: average of two independent experiments in duplicates; read-out: EC50 HIV-1 AZTres. As for the experimental part: (§1) T-tropic HIV-1 laboratory strains IIIb, 2D as well as AZT-resistant and UC781-resistant strains were utilized in this study, along with clinical isolate (clade C). HIV-1 clinical isolate, resistant to AZT is a generous gift from Dr. Mark A. Wainberg, McGill AIDS Center, McGill University, Montreal, Canada.
(§2) MT-2 or MT-4 cells were cultured in RPMI 1640 supplemented with 10% fetal calf serum (FCS), 0.2 mM glutamine and penicilline/streptomycin/nistatin mixture. The cells were propagated in 96-well tissue culture plates at the density of 5×10^4 cells per well. Peripheral mononuclear blood cells (PMBC) were separated from whole blood samples by centrifugation in Ficoll gradient for 10 min at 400 g. PMBC were cultured in the same medium in 24-well tissue culture plates at the density of about 10^6 cells per well.

For assay [2], the system named is HIV-1 clinical isolate (clade C). Described as above. As for the experimental part: as §1, §2
The subject of assay [3] is HIV-1 IIIB. Described as above. The following applies: range over IIIb, 2D, AZT resistant, UC781 resistant and clade C HIV-1. The protocol:
as §1, §2

For assay [4], the system named is HIV-1 2D. The protocol:
as §1, §2

The mark [5] stands for this setting: average of two independent experiments in duplicates.

“Triargininamido-gentamicin conjugate [R3G]”: the EC50 – broadly, the midpoint of the concentration-response curve – is 8 µM in assay [1], 6 µM in assay [2] (setting [5]), 6 to 10 µM in assay [3] and 10 µM in assay [4] (setting [5]). In assay [2] (MT-2 cells infected in presence of 20 μM R3G or 10 μM NeoR, then 3 days without AAC), the “inhibition of virus growth” value came to 30%. The “antiviral effect in the presence of AZT” value in assay [4] (HIV-1 2D and clade C) is on record as “additive”.
